Here are results for 27 molecules from patent US11993576B2, “N-benzyl-N-arylsulfonamide derivative and preparation and use thereof” (Hangzhou Yirui Pharmaceutical Technology Co., Ltd, priority 2019, dated 2024).

Chain of human Kv1.3 (P22001 whole entry): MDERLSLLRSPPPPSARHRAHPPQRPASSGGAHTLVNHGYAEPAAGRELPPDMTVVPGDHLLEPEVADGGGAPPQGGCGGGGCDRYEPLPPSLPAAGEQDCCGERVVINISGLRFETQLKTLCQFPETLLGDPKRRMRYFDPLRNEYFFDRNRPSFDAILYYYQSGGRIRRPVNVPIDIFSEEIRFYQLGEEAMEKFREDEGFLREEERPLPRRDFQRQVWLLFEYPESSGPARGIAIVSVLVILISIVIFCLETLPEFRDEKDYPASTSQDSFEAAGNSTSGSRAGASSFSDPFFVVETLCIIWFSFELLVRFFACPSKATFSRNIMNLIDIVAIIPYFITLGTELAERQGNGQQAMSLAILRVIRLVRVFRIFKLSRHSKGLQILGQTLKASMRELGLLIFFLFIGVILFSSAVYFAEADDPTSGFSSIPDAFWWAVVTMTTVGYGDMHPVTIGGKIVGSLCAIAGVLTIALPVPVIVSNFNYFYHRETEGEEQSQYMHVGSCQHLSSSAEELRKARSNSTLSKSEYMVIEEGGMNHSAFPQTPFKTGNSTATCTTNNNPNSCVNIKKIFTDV

For this test, the target named is human Kv1.3 (Homo sapiens, UniProt P22001). Nature of the test: IonWorks automated patch clamp assay of inhibitory activity against Kv1.3. It counts as cell-based. To be noted: automated patch clamp method; CHO-K1 cells stably expressing human Kv1.3. The method, then:
I. IonWorks Automated Patch Clamp Assay of Inhibitory Activity Against Kv1.3
The principle and method for Kv1.3 IonWorks assay can be found in Schroeder et al. [Schroeder et al. J Biomol Screen 2003, 8(1):50-64]
Inhibitory activity of the compounds against Kv1.3 was assessed using a CHO-K1 recombinant cell line stably expressing human Kv1.3 (Charles River, Calif.). The cells were cultured in an F-12K culture medium containing 5% calf serum (Invitrogen, Carlsbad. Calif.) in an incubator at 37° C. and under air humidity with 6% CO2. Prior to be fed in the IonWorks system, the adherent cells were treated with Versene at 37° C. for 6-7 min. After gently beating the culture flask, the cells were re-suspended in a PBS phosphate buffer, and then were centrifuged at 50×g for 4 min. After a short grinding, the cells were eventually re-suspended in an external recording solution at a density of approximately 1×10^6/mL.
The compounds were dissolved in DMSO to formulate a final assay concentration of 300× on the master plate. The final gradient assay concentrations were […], 0.096, 0.048, 0.24, 1.2, 6 and 30 μM. All 300× stock solutions of each compound in DMSO were transferred to a 384-well plate with 2 μl per well. The plates were sealed and stored at −80° C. until the day of assay.
On the day of assay, the plates were each thawed at room temperature. After centrifugation, 198 μl of the external recording solution (with the components of: 130 mM Na-Gluconate, 20 mM NaCl, 4 mM KCl, 1 mM MgCl2, 1.8 mM CaCl2, 5 mM Glucose and 10 mM HEPES, pH7.3) was added and mixed thoroughly. This step provided a 1:100 dilution for the compounds. After addition of cells to IonWorks, a further 1:3 dilution was carried out, resulting in a total dilution of 1:300. At least 8 wells were reserved as blank control on each of the plates, i.e., containing only 0.3% DMSO. In addition, at least 8 wells were reserved as positive control to detect the specificity to cell signals. Fluoxetine, a compound as the positive control, was assayed at its maximum blocking concentration (100 μm) and secondary maximum blocking concentration (10 μm). In addition, an internal recording solution used in the assay (with the components of: 100 mM K-gluconate, 40 mM KCl, 1 mM MgCl2, 1 mM EGTA and 10 mM HEPES, pH7.3) contained Amphotericin B at a final concentration of 200 μg/mL to gain current channels inside the cells. The osmotic pressure of the solution was adjusted with sucrose.
Experimental procedures were carried out following the protocols as set by IonWorks Quattro system (Molecular Devices, San Jose, CA). The current of human Kv1.3 was elicited to 0 millivolt (mV) for four times by a pulse lasting 1 second. A potential of −80 mV was maintained between pulses, for 5 seconds. First, a early voltage application program was started in the IonWorks Quattro system, and then the compounds were added and incubated for 600 seconds. Next, a late voltage application program was started until completion of all assays.
The maximum peak outward currents both before and after addition of the compounds as well as the average tail current elicited when the fourth pulse rose to 0 mV were measured. The inhibitory activity of the compounds against Kv1.3 can be calculated by dividing the measured current amplitude after addition of the compounds by the measured current amplitude before addition of the compounds.
All data was calibrated by a data filtration program of the IonWorks Quattro system. The filtration standard was that: seal quality >30 MΩ, decrease of seal resistance <50% and current amplitude >200 pA.
Take `CCCS(=O)(=O)N(Cc1ccc(OC)cc1)c1ccc(N2CCN(C(=O)OCC)CC2)c(C#N)c1` [Compound 27, Ethyl 4-(2-cyano-4-(N-(4-methoxybenzyl)propanesulfonamido)phenyl)piperazin-1-formate]: the concentration for half-maximal inhibition (IC50) (in general, the midpoint of a concentration-inhibition curve) is 239 nM.
`CCCS(=O)(=O)N(Cc1ccncn1)c1ccc(N2CCN(C(=O)N(C)C)CC2)c(C#N)c1` [Compound 42, 4-(2-cyano-4-(N-(pyrimidin-4-ylmethyl)propanesulfonamido)phenyl)-N,N-dimethylpiperazin-1-formamide] yielded an IC50 of 167 nM.
In turn, `CCS(=O)(=O)N(Cc1ccc(F)cc1)c1ccc(N2CCN(S(=O)(=O)N(C)C)CC2)c(C#N)c1` [Compound 43, 4-(2-cyano-4-(N-(4-fluorobenzyl)ethanesulfonamido)phenyl)-N,N-dimethylpiperazin-1-sulfonamide] had an IC50 of 124 nM.
As for `CCCS(=O)(=O)N(Cc1ccc(OC)cc1F)c1ccc(N2CCN(C(=O)OCC)CC2)c(C#N)c1` [Compound 29, Ethyl 4-(2-cyano-4-(N-(2-fluoro-4-methoxybenzyl)propanesulfonamido)phenyl)piperazin-1-formate], the half-inhibitory concentration (IC50) is 439 nM.
`CCCS(=O)(=O)N(Cc1ccc(F)cc1OC)c1ccc(N2CCN(C(=O)OCC)CC2)c(C#N)c1` [Compound 30, Ethyl 4-(2-cyano-4-(N-(4-fluoro-2-methoxybenzyl)propanesulfonamido)phenyl)piperazin-1-formate] showed an IC50 of 288 nM.
As to `CCOC(=O)N1CCN(c2ccc(N(C(=O)c3ccccc3)S(=O)(=O)c3ccccc3)cc2C#N)CC1` [Compound 4, ethyl 4-(2-cyano-4-(N-(benzenesulfonamido)benzamido)phenyl)piperazin-1-formate], inhibition was half-maximal at 12900 nM (IC50).
The molecule `CCOC(=O)N1CCN(c2ccc(N(CC(C)C)S(=O)(=O)c3ccccc3)cc2C#N)CC1` [Compound 13, ethyl 4-(2-cyano-4-(N-isobutylphenylsulfonamido)phenyl)piperazin-1-formate] returned a half-inhibitory concentration (IC50) of 6400 nM.
`CC(C)CCS(=O)(=O)N(Cc1ccc(F)cc1)c1ccc(N2CCN(C(=O)N(C)C)CC2)c(C#N)c1` [Compound 39, 4-(2-cyano-4-((N-(4-fluorobenzyl)-3-methylbutyl)sulfonamido)phenyl)-N,N-dimethylpiperazin-1-formamide] registered a half-inhibitory concentration (IC50) of 155 nM.
Regarding `CCCS(=O)(=O)N(Cc1ccc(F)cc1)c1ccc(SC2CCN(C=O)CC2)c(C#N)c1` [Compound 57, N-(4-((1-formylpiperidin-4-yl)thio)-3-cyanophenyl)-N-(4-fluorobenzyl) propanesulfonamide], half-maximal inhibition (IC50) required 254 nM.
With `CCCS(=O)(=O)N(Cc1ccc(F)cc1)c1ccc(NC2CCNCC2)c(C#N)c1` [Compound 52, N-(3-cyano-4-(piperidin-4-ylamino)phenyl)-N-(4-fluorobenzyl) propanesulfonamide] the figure was 139 nM; with `N#Cc1cc(N(Cc2ccccc2)S(=O)(=O)c2ccccc2)ccc1OC1CCN(C=O)CC1` [Compound 60, N-(4-((1-formylpiperidin-4-yl)oxy)-3-cyanophenyl)-N-benzylbenzenesulfonamide], 332 nM.
As to `CCOC(=O)N1CCN(c2ccc(N(Cc3ccccc3)S(=O)(=O)c3ccccc3)cc2C#N)CC1` [Compound 1, ethyl 4-(4-(N-benzylbenzenesulfonamido)-2-cyanophenyl)piperazin-1-formate], inhibition was half-maximal at 265 nM (IC50).
On to `CCOC(=O)N1CCN(c2ccc(N(Cc3ccc(F)c(OC)c3)S(=O)(=O)c3ccc(F)cc3)cc2C#N)CC1` [Compound 3, ethyl 4-(2-cyano-4-((4-fluoro-N-(4-fluoro-3-methoxybenzyl)phenyl)sulfonamido)phenyl)piperazin-1-formate], for which the IC50 stood at 107 nM.
Molecule `CN(C)S(=O)(=O)C1CCN(c2ccc(N(Cc3ccccc3)S(=O)(=O)c3ccccc3)cc2C#N)CC1` [Compound 12, 1-(4-(N-benzylbenzenesulfonamido)-2-cyanophenyl)-N,N-dimethylpiperidin-4-sulfonamide] came in with an IC50 of 234 nM.
Regarding `CCCS(=O)(=O)N(Cc1cccc(OC)c1)c1ccc(N2CCN(C(=O)OCC)CC2)c(C#N)c1` [Compound 26, Ethyl 4-(2-cyano-4-(N-(3-methoxybenzyl)propanesulfonamido)phenyl) piperazin-1-formate], the IC50 came out at 420 nM.
The figure for `CCCS(=O)(=O)N(Cc1ccc(F)cc1)c1ccc(OC2CCNCC2)c(C#N)c1` [Compound 50, N-(3-cyano-4-(piperidin-4-yloxy)phenyl)-N-(4-fluorobenzyl) propanesulfonamide] is 370 nM; for `N#Cc1cc(N(Cc2ccccc2)S(=O)(=O)c2ccccc2)ccc1N1C(=O)CCCC1=O` [Compound 16, N-benzyl-N-(3-cyano-4-(2,6-dioxopiperidin-1-yl)phenyl)benzenesulfonamide] it is 1260 nM.
Molecule `CN(C)S(=O)(=O)N1CCN(c2ccc(N(Cc3ccc(F)cc3F)S(=O)(=O)CC3CC3)cc2C#N)CC1` [Compound 47, 4-(2-cyano-4-((1-cyclopropyl-N-(2,4-difluorobenzyl)methyl)sulfonamido)phenyl)-N,N-dimethylpiperazin-1-sulfonamide] gave an IC50 of 124 nM.
The figure for `CCCS(=O)(=O)N(Cc1ccccc1)c1ccc(N2CCN(C(=O)OCC)CC2)c(C#N)c1` [Compound 22, Ethyl 4-(4-(N-benzylpropanesulfonamido) 2-cyanophenyl)piperazin-1-formate] is 333 nM; for `CCCS(=O)(=O)N(Cc1ccc(F)cc1)c1ccc(OC2CCN(C(C)=O)CC2)c(C#N)c1` [Compound 53, N-(4-((1-acetylpiperidin-4-yl)oxy)-3-cyanophenyl)-N-(4-fluorobenzyl) propanesulfonamide] it is 291 nM.
Turning to `CN(C)S(=O)(=O)N1CCN(c2ccc(N(Cc3ccc(F)cc3)S(=O)(=O)c3cccnc3)cc2C#N)CC1` [Compound 48, 4-(2-cyano-4-(-N-(4-fuorophenyl)pyridin-3-sulfonamido)phenyl)-N,N-dimethylpiperazin-1-sulfonamide], half-maximal inhibition (IC50) was put at 145 nM.
For `CCCS(=O)(=O)N(Cc1ccccc1F)c1ccc(N2CCN(C(=O)OCC)CC2)c(C#N)c1` [Compound 25, Ethyl 4-(2-cyano-4-(N-(2-fluorobenzyl)propanesulfonamido)phenyl) piperazin-1-formate], the IC50 was found to be 321 nM.
The molecule `CCOC(=O)N1CCN(c2ccc(N(Cc3ccc(F)cc3)S(=O)(=O)c3ccc(F)cc3)cc2C#N)CC1` [Compound 2, ethyl 4-(2-cyano-4-((4-fluoro-N-(4-fluorobenzyl)phenyl)sulfonamido)phenyl)piperazin-1-formate] displayed an IC50 of 131 nM.
The figure for `CCCS(=O)(=O)N(Cc1ccc(F)cc1)c1ccc(N2CCC(O)CC2)c(C#N)c1` [Compound 19, N-(3-cyano-4-(4-hydroxypiperidin-1-yl)phenyl)-N-(4-fluorobenzyl)propane-1-sulfonamide] is 130 nM.
Turning to `CC(=O)N1CCC(Oc2ccc(N(Cc3ccccc3)S(=O)(=O)c3ccccc3)cc2C#N)CC1` [Compound 59, N-(4-((1-acetylpiperidin-4-yl)oxy)-3-cyanophenyl)-N-benzylbenzenesulfonamide], half-maximal inhibition (IC50) required 441 nM.
With `CN(C)C(=O)N1CCN(c2ccc(N(Cc3ccccc3)S(=O)(=O)c3ccccc3)cc2C#N)CC1` [Compound 11, 4-(4-(N-benzylbenzenesulfonamido)-2-cyanophenyl)-N,N-dimethylpiperazin-1-formamide] the figure was 195 nM; with `CCCS(=O)(=O)N(Cc1ccc(F)cc1)c1ccc(NC2CCN(C(C)=O)CC2)c(C#N)c1` [Compound 55, N-(4-((1-acetylpiperidin-4-yl)amino)-3-cyanophenyl)-N-(4-fluorobenzyl)propanesulfonamide], 160 nM.
